In experiment [1] the test system is Human alphaherpesvirus 2. Briefly: Antiviral activity against Herpesvirus 2. It is filed as functional.
The subject of experiment [2] is rhinovirus A2. Briefly: Antiviral activity against Human rhinovirus 2. It is filed as functional. Conditions: Rhinovirus A.
A short description of experiment [3]: Antiviral activity against Human rhinovirus 17. It is filed as functional, Human rhinovirus B17. Conditions: Rhinovirus B.
The subject of experiment [4] is Equine herpesvirus sp. Briefly: Antiviral activity Equine rhinovirus. It is filed as functional.
For experiment [5], the system named is Human respirovirus 3. Briefly: Antiviral activity against Parainfluenza virus 3. It is filed as functional.
The test system of experiment [6] is Respiratory syncytial virus. Briefly: Antiviral activity against Respiratory syncytial virus. It is filed as functional. Conditions: human respiratory syncytial virus.
Experiment [7] relates to Human alphaherpesvirus 1. Briefly: Antiviral activity against Herpes simplex virus 1. It is filed as functional.
In experiment [8] the test system is Influenza A virus. Briefly: Antiviral activity against Influenza A2 Japan 170 virus infected in ferret trachea assessed as reduction in virus yield at 50 ug/ml. It is filed as functional. Conditions: A2 Japan 170, Trachea, in Mustela putorius.
The subject of experiment [9] is Influenza A virus. The experiment is described as follows: Antiviral activity against Influenza A2 Japan 170 virus infected in ferret trachea assessed as reduction in virus yield at 25 ug/ml. It is filed as functional. Conditions: A2 Japan 170, Trachea, in Mustela putorius.
Experiment [10] concerns Equine herpesvirus sp. The experiment is described as follows: Antiviral activity Equine rhinovirus infected in monkey trachea assessed as log reduction in virus yield at 25 ug/ml. It is filed as functional.
For experiment [11], the system named is Equine herpesvirus sp. The experiment is described as follows: Antiviral activity Equine rhinovirus infected in monkey trachea assessed as log reduction in virus yield at 50 ug/ml. It is filed as functional.
The subject of experiment [12] is Human alphaherpesvirus 1. Briefly: Antiviral activity against Herper simplex virus 1 Sheely infected in Blue Spruce mouse assessed as host survival rate administered as 10% suspension in 1% gum tragacanth intravaginally, bid using cotton tampons treatment started 4 hrs post-infection for every 24 hrs and second treatment followed 6 hrs later for 7 days measured 14 days post-infection (reference value: 40%). It is filed as functional.

For experiment [13], the system named is Human alphaherpesvirus 1. The experiment is described as follows: Antiviral activity against Herper simplex virus 1 Sheely infected in Blue Spruce mouse assessed as host survival rate administered as 5% suspension in 1% gum tragacanth intravaginally, bid using cotton tampons treatment started 4 hrs post-infection for every 24 hrs and second treatment followed 6 hrs later for 7 days measured 14 days post-infection (reference value: 40%). It is filed as functional.

In experiment [14] the test system is Human alphaherpesvirus 1. Briefly: Antiviral activity against Herper simplex virus 1 Sheely infected in Blue Spruce mouse assessed as host survival time administered as 10% suspension in 1% gum tragacanth intravaginally, bid using cotton tampons treatment started 4 hrs post-infection for every 24 hrs and second treatment followed 6 hrs later for 7 days (reference value: >10.7 days). It is filed as functional.

The subject of experiment [15] is Human alphaherpesvirus 1. The experiment is described as follows: Antiviral activity against Herper simplex virus 1 Sheely infected in Blue Spruce mouse assessed as host survival time administered as 5% suspension in 1% gum tragacanth intravaginally, bid using cotton tampons treatment started 4 hrs post-infection for every 24 hrs and second treatment followed 6 hrs later for 7 days (reference value: >10.7 days). It is filed as functional.

≈ marks a conversion by molar mass, not a printed value. Calls of active or inactive are those of the source. No cut-off for these calls is given here. Bounds are passed on as bounds.

In [1], `CCC(=O)C(C[C@H]1CC[C@@H](COc2ccc(OC)cc2Cl)CC1)C(=O)CC` had an MIC of 6 mg/L (≈ 15.2 µM).

Take `CCC(=O)C(Cc1ccc(/C=C/c2ccc(O)cc2)cc1)C(=O)CC`: the MIC in experiment [1] was found to be 1.5 mg/L (≈ 4.46 µM).

For the compound `CCC(=O)C(Cc1ccc(/C=C/c2ccc(OC)cc2Cl)cc1Cl)C(=O)CC`, in experiment [1], the MIC result is “inactive”.

Compound `CCC(=O)C(CC1CCC(Cc2ccc(OC)cc2)CC1)C(=O)CC` (configuration not stated) showed an MIC in experiment [1] of 6 mg/L (≈ 17.4 µM).

`CCC(=O)C(Cc1ccc(/C=C/c2ccc(O)cc2Cl)cc1)C(=O)CC` came in with an MIC in experiment [1] of 1.5 mg/L (≈ 4.04 µM).

`CCC(=O)C(Cc1ccc(Cc2ccc(O)cc2)cc1)C(=O)CC`: in experiment [1], the MIC was determined as 3 mg/L (≈ 9.25 µM).

For `CCC(=O)C(Cc1ccc(CCc2ccc(OC)cc2)cc1)C(=O)CC`, in experiment [1], the MIC is 3 mg/L (≈ 8.51 µM).

The compound `CCC(=O)C(Cc1ccc(/C=C/c2ccc(OC)cc2Cl)cc1)C(=O)CC` gave an MIC in [1] of 1.5 mg/L (≈ 3.9 µM).

`CCC(=O)C(Cc1ccc(/C=C/c2ccc(Cl)cc2)cc1)C(=O)CC`: the MIC result in experiment [1] is “inactive”.

Take `CCC(=O)C(Cc1ccc(Cc2ccccc2)cc1)C(=O)CC`: the MIC in experiment [1] worked out at 6 mg/L (≈ 19.5 µM).

On to `CCC(=O)C(Cc1ccc(OC)cc1Cl)C(=O)CC`, for which the MIC in experiment [1] is 50 mg/L (≈ 177 µM).

Compound `CCC(=O)C(Cc1ccc(Cc2ccc(OC)cc2)cc1)C(=O)CC` had an MIC in experiment [1] of 6 mg/L (≈ 17.7 µM).

`CCC(=O)C(Cc1ccc(Oc2ccc(OC)cc2)cc1)C(=O)CC` gave an MIC in experiment [1] of 3 mg/L (≈ 8.81 µM).

With `CCC(=O)C(Cc1ccc(/C=C/c2ccc(OC)cc2)cc1)C(=O)CC`, the MIC in experiment [1] was 1.25 mg/L (≈ 3.57 µM); in experiment [2], 0.2 mg/L (≈ 0.571 µM); in experiment [3], 0.3 mg/L (≈ 0.856 µM); in [4], 0.06 mg/L (≈ 0.171 µM); in experiment [5] it was 3 mg/L (≈ 8.56 µM); in [6], 1.5 mg/L (≈ 4.28 µM). In [7], this compound displayed an MIC of 0.7 mg/L (≈ 2 µM). Besides, the inhibition (usually the relative decrease from the control value, in per cent) at 50 µg/mL in [8] was 0%. Also, the inhibition at 25 µg/mL in experiment [9] was 0%. Besides, the results for the LCK in experiment [10] and in experiment [11] were 1.7 and 2, respectively. Further, the Survival in [12] amounted to 60%; in experiment [13] it was 50%. Also, the figures for the Time in experiment [14] and in [15] were more than 11.4 days and more than 11.3 days, respectively.

As for `CCC(=O)C(Cc1ccc(C)cc1)C(=O)CC`, the MIC result in experiment [1] was “inactive”.

As to `CCC(=O)C(Cc1ccc(OC)cc1)C(=O)CC`, the MIC entry in experiment [1] was “inactive”.

On to `CCC(=O)C(Cc1ccc(/C=C/c2ccccc2)cc1)C(=O)CC`, for which the MIC result in experiment [1] was “inactive”.

Regarding `CCC(=O)C(Cc1ccc(O)cc1)C(=O)CC`, the MIC entry in experiment [1] was “inactive”.

The record behind these values is ChEMBL document CHEMBL3272101, “Antiviral activity of some beta-diketones. 4. Benzyl diketones. In vitro activity against both RNA and DNA viruses” (1978).
